Each structure is given as a SMILES string.

The values that follow come from patent US11926628B2 (Gilead Sciences, Inc., priority 2021, dated 2024).

The target of one experiment is human DGKα (Homo sapiens (Human), UniProt P23743). The experiment is described as follows: DGKα Biochemical Activity Assay (ADP-Glo). As to conditions: recombinant DGKα 1 nM, 100 μM ATP, 18:1 DAG/POPS/octylglucoside micelles, 1 hour at 25° C.; geometric mean; read-out: HTBS DGKa 1X ATP KM IC50. The source says: Alternatively, the enzymatic activity of human DGKα was monitored in a biochemical assay in the presence or absence of compounds and using micelles containing 18:1 Diacylglycerol (DAG), 16:0-18:1 PS (POPS) and Octylglucoside as substrate. DGKα activity led to conversion of DAG and ATP to Phosphatidic Acid (PA) and ADP. Levels of ADP were monitored by bioluminescence using the ADP-Glo Kinase Assay (Promega) and were indicative of DGKα activity.
Ten nanoliters of test compound dissolved in DMSO at various concentrations were dispensed into a 384-well low volume nonbinding service white plates (Corning #3824) using a Labcyte Echo instrument. Recombinant DGKα (Carna Biosciences) in assay buffer (5 μL in 50 mM MOPS [3-(N-morpholino) propanesulfonic acid], pH 7.2; 0.0025% Triton X-100; 1 mM dithiothreitol; 5 mM MgCl2, 200 μM ATP) was added to the compound-containing plate and was incubated for 15 minutes at 25° C. A substrate solution (5 μL in 1.7 mM 1,2-dioleoyl-sn-glycerol [18:1 DAG], 13.5 mM 1-palmitoyl-2-oleoyl-sn-glycero-3-phospho-L-serine [16:0-18:1 PS](POPS), 2 μM CaCl2, 100 mM Octylglucoside (OG), 1 mM DTT) (obtained from Carna Biosciences) diluted in DGK ALPHA assay buffer was then added to start the reaction. Final concentrations were 1 nM DGKα, 100 μM ATP, 1 μM calcium chloride, 0.85 mM 1,2-dioleoyl-sn-glycerol (18:1 DAG), 6.75 mM 1-palmitoyl-2-oleoyl-sn-glycero-3-phospho-L-serine (16:0-18:1 PS) (POPS), 1 μM CaCl2), 50 mM Octylglucoside (OG) and 5 mM MgCl2. The reaction mixture was incubated at 25° C. for 1 hour. ADP-Glo Reagent (10 μL, 10 mM Mg added) provided by the kit was added to each well and incubated at 25° C. for 40 minutes. Then, 20 μL of Kinase Detection Reagent was added and incubated at 25° C. for 40 minutes. Luciferase activity of each well was measured via luminescence on an Envision plate reader (PerkinElmer).
Data were normalized based on maximum inhibition (50 μM of kinase inhibitor CU3) and no inhibition (DMSO) controls. Least squares curve fittings were performed using a four-parameter variable slope nonlinear regression model. IC50 was defined as the concentration of compound required to inhibit 50% of maximum activity. IC50 values from multiple experiments were averaged by geometric mean and the standard deviation was calculated.

Experiment [1] deals with Jurkat NFκB-luciferase cells. The experiment is described as follows: Jurkat NFκB-Luciferase Assay. As to conditions: Homo sapiens; Jurkat NFκB-luciferase cells activated with anti-CD3 antibody (OKT3), 2.5 hrs at 37° C.; geometric mean; read-out: DGK NFKb Luciferase EC50. Type of experiment: cell-based. The method, then:
The activity of compounds was tested in a cell based NFκB reporter assay. Jurkat cells that are stably expressing a luciferase reporter construct under the transcriptional control of a NFκB reporter element were activated with an anti-CD3 antibody and luciferase levels were measured with a bioluminescence readout. An increase in the levels of bioluminescence was indicative of enhanced T-cell activation following DGKα inhibition by the compound.
Flat-bottom polystyrene plates (384-well, tissue culture treated) were coated overnight at 4° C. with 20 ul/well of a solution of phosphate-buffered saline supplemented with 5 ug/ml anti-CD3 antibody (clone OKT3, Biolegend). The day after, the excess antibody was washed out five times with 100 ul/well of assay medium (RPMI supplemented with 10% fetal bovine serum) using a Biotek EL406 instrument and leaving 20 ul of residual volume in each well. Jurkat NFκB-luciferase cells (Promega #) were harvested and diluted to 1 million cells/ml in assay medium. Sixty nanoliters of test compound dissolved in DMSO at various concentrations were dispensed into 384-well v-bottom polypropylene plates (Greiner) using a Labcyte Echo instrument. Thirty microliters of medium containing the Jurkat NFκB-luciferase cells were then dispensed using a Biotek MicroFlo instrument in each well of the compound-containing plate. The medium/cell/compound mixture was mixed with a Bravo instrument and 20 ul/well of the mixture was transferred to the anti-CD3-coated plate. The assay mixture was then incubated for 2.5 hrs at 37° C. followed by equilibration at 25° C. for 30 min. Forty microliters of One-Glo Ex (Promega) was then added to the assay mixture and luciferase activity was read on a Envision plate reader 7 minutes later.
Bioluminescence data were normalized based on maximum enhancement (1 micromolar of compound) and on basal activation (DMSO) controls. Least squares curve fittings were performed using a four-parameter variable slope nonlinear regression model. EC50 is defined as the concentration of compound required to produce 50% of maximum NFκB luciferase signal. EC50 values from multiple experiments were averaged by geometric mean and the standard deviation was calculated.

human DGKα, sequence (P23743 whole entry): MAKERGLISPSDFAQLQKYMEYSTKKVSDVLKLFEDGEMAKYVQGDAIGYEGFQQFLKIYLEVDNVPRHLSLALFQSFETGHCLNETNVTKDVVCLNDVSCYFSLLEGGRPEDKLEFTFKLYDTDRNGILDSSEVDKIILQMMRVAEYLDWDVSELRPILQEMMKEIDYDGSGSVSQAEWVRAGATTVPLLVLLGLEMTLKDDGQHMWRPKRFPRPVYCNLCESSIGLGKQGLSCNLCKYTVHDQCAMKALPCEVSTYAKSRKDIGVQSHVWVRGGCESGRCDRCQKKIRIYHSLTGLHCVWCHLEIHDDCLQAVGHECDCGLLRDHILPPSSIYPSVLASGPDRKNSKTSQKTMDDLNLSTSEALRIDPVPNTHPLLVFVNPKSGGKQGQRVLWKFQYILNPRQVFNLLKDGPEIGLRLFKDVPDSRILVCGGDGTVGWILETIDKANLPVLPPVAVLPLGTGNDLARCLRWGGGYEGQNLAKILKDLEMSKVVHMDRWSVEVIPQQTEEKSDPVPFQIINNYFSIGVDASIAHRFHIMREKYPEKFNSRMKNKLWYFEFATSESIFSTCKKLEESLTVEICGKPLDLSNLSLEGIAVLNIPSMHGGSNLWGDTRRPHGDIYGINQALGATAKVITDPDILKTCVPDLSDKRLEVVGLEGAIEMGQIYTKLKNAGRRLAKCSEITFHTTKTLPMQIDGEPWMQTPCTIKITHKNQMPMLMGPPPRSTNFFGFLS

With `Cc1nnc2nc(N3CCOCc4c(C#CC(C)(C)O)cccc43)c3ccc(C(F)(F)F)nc3n12` [Example 141, 2-methyl-4-[1-[3-methyl-12-(trifluoromethyl)-2,4,5,7,13-pentazatricyclo[7.4.0.02,6]trideca-1(13),3,5,7,9,11-hexaen-8-yl]-3,5-dihydro-2H-4,1-benzoxazepin-6-yl]but-3-yn-2-ol], on human DGKα, the IC50 came out at 20.1 nM. Further, the concentration giving a half-maximal response (EC50) in experiment [1] was 55.8 nM.

For `Fc1cc(C#CC2(C(F)(F)F)CC2)cc(N(CC(F)F)c2nc3nncn3c3cccnc23)c1` [Example 20, N-(2,2-difluoroethyl)-N-(3-fluoro-5-((1-(trifluoromethyl)cyclopropyl)ethynyl)phenyl)pyrido[2,3-e][1,2,4]triazolo[4,3-a]pyrimidin-5-amine], the IC50 at human DGKα was 71.8 nM. The EC50 in experiment [1] was determined as 2.9 nM.

As for `Cc1nnc2nc(N(CC(F)F)c3cc(F)cc(C#CC(C)(C)O)c3)c3cc(F)cnc3n12` [Example 99, 4-(3-((2,2-difluoroethyl)(3-fluoro-9-methylpyrido[3,2-e][1,2,4]triazolo[4,3-a]pyrimidin-5-yl)amino)-5-fluorophenyl)-2-methylbut-3-yn-2-ol], the IC50 on human DGKα was 38.9 nM. For the same compound, the EC50 in experiment [1] was found to be 53.1 nM.

Take `Cc1nnc2nc(N(CC(F)F)c3cc(F)cc(C#CC4(C(F)(F)F)CC4)c3)c3c(F)cncc3n12` [Example 51, N-(2,2-difluoroethyl)-6-fluoro-N-(3-fluoro-5-((1-(trifluoromethyl)cyclopropyl)ethynyl)phenyl)-1-methylpyrido[4,3-e][1,2,4]triazolo[4,3-a]pyrimidin-5-amine]: the IC50 on human DGKα turned out to be 36.2 nM. The EC50 in experiment [1] turned out to be 9.17 nM.

For `CN(c1cc(F)cc(C#CC(C)(C)O)c1)c1nc2cncn2c2cc(Cl)ccc12` [Example 3, 4-[3-[(8-chloroimidazo[1,5-a]quinazolin-5-yl)-methyl-amino]-5-fluoro-phenyl]-2-methyl-but-3-yn-2-ol], at human DGKα, the IC50 was determined as 839 nM. Also, the EC50 in experiment [1] stood at 14.6 nM.

For the compound `CC1(C#Cc2cc(F)cc(N(CC(F)F)c3nc4nncn4c4cncc(F)c34)c2)CC1` [Example 45, N-(2,2-difluoroethyl)-6-fluoro-N-(3-fluoro-5-((1-methylcyclopropyl)ethynyl)phenyl)pyrido[4,3-e][1,2,4]triazolo[4,3-a]pyrimidin-5-amine], the IC50 on human DGKα amounted to 52.1 nM. Further, the EC50 in experiment [1] worked out at 2.67 nM.

Consider `Cc1nnc2nc(N3CCCc4c(C#CC(C)(C)C#N)cccc43)c3cc(F)cnc3n12` [Example 144, 4-(1-(3-fluoro-9-methylpyrido[3,2-e][1,2,4]triazolo[4,3-a]pyrimidin-5-yl)-1,2,3,4-tetrahydroquinolin-5-yl)-2,2-dimethylbut-3-ynenitrile], for which the IC50 on human DGKα was determined as 5.08 nM. In addition, the EC50 in experiment [1] came to 4.67 nM.

For the compound `Cc1nnc2nc(N(CC(F)F)c3cc(F)cc(C#CC(C)(C)C(F)(F)F)c3)c3c(F)cncc3n12` [Example 50, N-(2,2-difluoroethyl)-6-fluoro-N-(3-fluoro-5-(4,4,4-trifluoro-3,3-dimethylbut-1-yn-1-yl)phenyl)-1-methylpyrido[4,3-e][1,2,4]triazolo[4,3-a]pyrimidin-5-amine], at human DGKα, the IC50 was found to be 13 nM. In addition, in experiment [1], the EC50 turned out to be 4.91 nM.

On to `CN(c1cccc(Cl)c1)c1nc2nncn2c2nc(N)ccc12` [Example 132, N5-(3-chlorophenyl)-N5-methylpyrido[3,2-e][1,2,4]triazolo[4,3-a]pyrimidine-2,5-diamine], for which the IC50 at human DGKα was determined as 388 nM. In addition, in experiment [1], the EC50 was determined as 91.4 nM.

For `CNc1ccc2c(N(C)c3cccc(-c4ccc(C5CC5)cc4)c3)nc3nncn3c2n1` [Example 120, N5-(4′-cyclopropyl-[1,1′-biphenyl]-3-yl)-N2,N5-dimethylpyrido[3,2-e][1,2,4]triazolo[4,3-a]pyrimidine-2,5-diamine], the IC50 on human DGKα is 19.3 nM. In experiment [1], the EC50 is 0.664 nM.

For the compound `Cc1nnc2nc(N3CCCc4c(C#CC(C)(C)C#N)cccc43)c3c(F)cncc3n12` [Example 97, 4-(1-(6-fluoro-1-methylpyrido[4,3-e][1,2,4]triazolo[4,3-a]pyrimidin-5-yl)-1,2,3,4-tetrahydroquinolin-5-yl)-2,2-dimethylbut-3-ynenitrile], at human DGKα, the IC50 is 4.65 nM. In experiment [1], the EC50 came to 4.1 nM.

As for `Cc1nnc2nc(N3CCOCc4c(C#CC(C)(C)C#N)cccc43)c3c(F)cncc3n12` [Example 96, 4-(1-(6-fluoro-1-methylpyrido[4,3-e][1,2,4]triazolo[4,3-a]pyrimidin-5-yl)-1,2,3,5-tetrahydrobenzo[e][1,4]oxazepin-6-yl)-2,2-dimethylbut-3-ynenitrile], at human DGKα, the IC50 is 3.84 nM. For the same compound, the EC50 in experiment [1] turned out to be 6.63 nM.

On to `CCOc1ccc2c(N(C)c3cccc(-c4ccc(C5CC5)cc4)c3)nc3nncn3c2n1` [Example 113, N-(4′-cyclopropyl-[1,1′-biphenyl]-3-yl)-2-ethoxy-N-methylpyrido[3,2-e][1,2,4]triazolo[4,3-a]pyrimidin-5-amine], for which the EC50 in experiment [1] is 67.2 nM.

Take `Cc1nnc2nc(N3CCCCc4c(C#CC(C)(C)C#N)cccc43)c3c(F)cncc3n12` [Example 64, 4-(1-(6-fluoro-1-methylpyrido[4,3-e][1,2,4]triazolo[4,3-a]pyrimidin-5-yl)-2,3,4,5-tetrahydro-1H-benzo[b]azepin-6-yl)-2,2-dimethylbut-3-ynenitrile]: the EC50 in experiment [1] is 5.98 nM.

For the compound `CN(C)c1ccc2c(N(C)c3cccc(-c4ccc(C5CC5)cc4)c3)nc3nncn3c2n1` [Example 112, N^5-(4′-cyclopropyl-[1,1′-biphenyl]-3-yl)-N^2,N^2,N^5-trimethylpyrido[3,2-e][1,2,4]triazolo[4,3-a]pyrimidine-2,5-diamine], the EC50 in experiment [1] amounted to 0.982 nM.

`COc1ccc(-c2cccc(N(C)c3nc4nncn4c4nc(N(C)C)ccc34)c2)cn1` [Example 111, N^5-(3-(6-methoxypyridin-3-yl)phenyl)-N^2,N^2,N^5-trimethylpyrido[3,2-e][1,2,4]triazolo[4,3-a]pyrimidine-2,5-diamine]: in experiment [1], the EC50 worked out at 20.1 nM.

As to `Cc1nnc2nc(N3CCCc4c(C#CC5(C(F)(F)F)CC5)cccc43)c3c(F)cncc3n12` [Example 41, 6-fluoro-1-methyl-5-(5-((1-(trifluoromethyl)cyclopropyl)ethynyl)-3,4-dihydroquinolin-1(2H)-yl)pyrido[4,3-e][1,2,4]triazolo[4,3-a]pyrimidine], the EC50 in experiment [1] is 2.4 nM.

Consider `CN(c1cccc(C#CC(C)(C)C)c1)c1nc2nncn2c2cnccc12` [Example 60], for which the EC50 in experiment [1] came out at 6.75 nM.

For the compound `CN(C)c1ccc2c(N(C)c3cccc(C#CC(C)(C)C)c3)nc3nncn3c2n1` [Example 110, N^5-(3-(3,3-dimethylbut-1-yn-1-yl)phenyl)-N^2,N^2,N^5-trimethylpyrido[3,2-e][1,2,4]triazolo[4,3-a]pyrimidine-2,5-diamine], the EC50 in experiment [1] came to 9.9 nM.
